Drawing on patent US20120165310A1, “ETHER DERIVATIVES OF BICYCLIC HETEROARYLS” (NOVARTIS AG, priority 2009, published 2012), this text covers IC50 for 18 compounds.

The experiment deals with T1, IGF-1R (Homo sapiens, UniProt P08069).
T1 construct: expressed in transfected cells; host or cells: Hek293 (Hek293-IGF1R)
T1 sequence (P08069 31-1367): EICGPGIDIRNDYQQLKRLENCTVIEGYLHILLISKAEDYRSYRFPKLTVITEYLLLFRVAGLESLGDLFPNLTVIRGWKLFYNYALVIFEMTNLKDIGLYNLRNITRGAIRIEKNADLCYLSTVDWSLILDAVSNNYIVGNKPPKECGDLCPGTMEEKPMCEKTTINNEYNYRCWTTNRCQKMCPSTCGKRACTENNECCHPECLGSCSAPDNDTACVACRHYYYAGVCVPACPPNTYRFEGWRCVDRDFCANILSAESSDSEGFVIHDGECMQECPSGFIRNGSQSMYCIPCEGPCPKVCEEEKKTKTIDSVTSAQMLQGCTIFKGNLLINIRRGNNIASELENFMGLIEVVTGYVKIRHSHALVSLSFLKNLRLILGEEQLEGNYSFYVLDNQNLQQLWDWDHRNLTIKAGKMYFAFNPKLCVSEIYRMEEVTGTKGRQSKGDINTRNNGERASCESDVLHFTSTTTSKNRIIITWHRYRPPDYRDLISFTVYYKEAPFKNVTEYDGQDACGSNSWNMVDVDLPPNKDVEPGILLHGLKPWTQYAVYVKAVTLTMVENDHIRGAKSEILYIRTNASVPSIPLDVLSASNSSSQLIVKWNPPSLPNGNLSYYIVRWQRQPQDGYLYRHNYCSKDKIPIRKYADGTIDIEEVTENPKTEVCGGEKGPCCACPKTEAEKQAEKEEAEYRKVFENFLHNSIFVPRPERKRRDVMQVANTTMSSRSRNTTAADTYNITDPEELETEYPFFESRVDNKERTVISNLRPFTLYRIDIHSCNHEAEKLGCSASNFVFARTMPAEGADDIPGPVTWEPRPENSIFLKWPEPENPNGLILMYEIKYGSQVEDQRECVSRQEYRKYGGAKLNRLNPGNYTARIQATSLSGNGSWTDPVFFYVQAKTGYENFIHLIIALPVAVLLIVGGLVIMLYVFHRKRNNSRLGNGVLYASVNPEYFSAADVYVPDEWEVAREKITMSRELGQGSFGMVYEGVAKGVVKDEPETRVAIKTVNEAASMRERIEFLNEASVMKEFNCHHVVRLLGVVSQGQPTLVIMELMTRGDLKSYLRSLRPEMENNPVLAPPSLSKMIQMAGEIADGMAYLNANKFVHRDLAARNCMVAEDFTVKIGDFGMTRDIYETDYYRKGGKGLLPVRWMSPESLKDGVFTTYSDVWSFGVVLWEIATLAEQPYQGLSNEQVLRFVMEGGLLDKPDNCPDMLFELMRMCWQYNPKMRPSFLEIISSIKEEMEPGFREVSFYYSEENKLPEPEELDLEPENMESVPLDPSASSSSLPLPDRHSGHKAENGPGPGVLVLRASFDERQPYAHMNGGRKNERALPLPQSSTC
Put plainly: Cellular IGF-1R assay: capture ELISA (MSD) of receptor phosphorylation in Hek293 cells. Format: cell-based. To be noted: Hek293-IGF1R cells, 1 h pre-incubation, 10 min IGF stimulation, pIGF1R capture ELISA. How it is done: (§1) In this assay the activity of the compounds of the invention against Insulin-like growth factor I (IGF-I) induced autophosphorylation of the IGF-IR was determined. The assay was conducted as follows: Compound-mediated inhibition of IGF1R and INSR phosphorylation in Hek293 cells transduced with the corresponding receptors was assessed in a capture ELISA format using the MSD (Meso Scale Discovery) platform. Briefly, 30,000 cells washed and diluted in starvation medium (DMEM high glucose supplemented with 0.1% BSA) were seeded in 90 μL per well into 96-well plates pre-coated with poly-D-lysine (0.1 mg/mL in PBS/O). After 24 h incubation at 37° C. and 5% CO2, dose-response effects were determined with 3-fold serial compound dilutions, starting at 10 μM. The final vehicle concentration is 0.1% DMSO in all wells. Following pre-incubation with compounds for 1 h, receptor phosphorylation was triggered by a 10 min exposure to 1.0 ng/μL IGF for Hek293-IGF1R cells, and 5.0 ng/μL insulin for Hek293-InsR cells. Cell lysis was achieved by addition of 80 μL MSD lysis buffer per aspirated well, incubation on ice for 20 min, and a freeze-thaw cycle. Target phosphorylation was then assessed by transferring volumes corresponding to approx. 6 μg Hek293-IGF1R or 0.6 μg Hek293-InsR lysates to MSD assay plates pre-coated with total-IGF1R or total-InsR Abs, respectively. […] Immune complexes were detected by a SULFO-Tag™-coupled anti-rabbit IgG antibody in the presence of 150 μL MSD read-buffer. Light emission at 620 nm triggered by application of electric current was recorded on a MSD Sectorlmager 6000. Acquired raw data (mean Ru-ECL units) were processed in an Excel analysis template. The plate blank (MSD lysis buffer) was subtracted from all data points. The effect of a particular test compound concentration on receptor phosphorylation was expressed relative to the window defined by ligand-stimulated vs unstimulated control cells (set as 100%). IC50 values [nM] were determined using 4-parametric curve-fitting (XLfit software, V4.3.2).
as §1, with “Compound-mediated” for “In this assay the activity of the compounds of the invention against Insulin-like growth factor I (IGF-I) induced autophosphorylation of the IGF-IR was determined. The assay was conducted as follows: Compound-mediated”, “cells trans-duced” for “cells transduced”, “receptors were” for “receptors was”, “concentration was” for “concentration is”, “for Hek293-IGF1 R” for “for Hek293-IGF1R”, “with total-IGF1 R” for “with total-IGF1R”
In general terms: In an ELISA, binding on a coated surface is turned into a signal by an enzyme label.
As to `CC1(C)CCC(COc2cccc(-c3cn([C@H]4C[C@@H](CN5CC(C(N)=O)C5)C4)c4ncnc(N)c34)c2)O1` (relative stereo) [Example 49, 1-(cis-3-{4-amino-5-[3-(5,5-dimethyl-tetrahydro-furan-2-ylmethoxy)-phenyl]-pyrrolo[2,3-d]pyrimidin-7-yl}-cyclobutylmethyl)-azetidine-3-carboxylic acid amide], the concentration for half-maximal inhibition (IC50) (commonly the concentration needed to halve the response being measured) is 192 to 241 nM.
`CC1(C)CCC(COc2cccc(-c3cn([C@H]4C[C@@H](CN5CC[C@@H](F)C5)C4)c4ncnc(N)c34)c2)O1` (relative stereo) [Example 52, 5-[cis-3-(5,5-dimethyl-tetrahydro-furan-2-ylmethoxy)-phenyl]-7-[3-((R)-3-fluoro-pyrrolidin-1-ylmethyl)cyclobutyl]-7H-pyrrolo[2,3-d]pyrimidin-4-ylamine]: the IC50 is 37 nM.
As to `CC1(C)CCC(COc2cccc(-c3cn([C@H]4C[C@@H](CN5CCC(F)(F)CC5)C4)c4ncnc(N)c34)c2)O1` (relative stereo) [Example 53, 7-[cis-3-(4,4-difluoro-piperidin-1-ylmethyl)-cyclobutyl]-5-[3-(5,5-dimethyl-tetrahydro-furan-2-ylmethoxy)-phenyl]-7H-pyrrolo[2,3-d]pyrimidin-4-ylamine], the 50% inhibitory concentration (IC50) is 32 to 37 nM.
As to `CN1CCN([C@H]2CC[C@H](n3cc(-c4cccc(OCC5CCC(C)(C)O5)c4)c4c(N)ncnc43)CC2)CC1` (relative stereo) [Example 62, 5-[3-(5,5-dimethyl-tetrahydro-furan-2-ylmethoxy)-phenyl]-7-[trans-4-(4-methyl-piperazin-1-yl)-cyclohexyl]-7H-pyrrolo[2,3-d]pyrimidin-4-ylamine], the IC50 was 314 nM.
In turn, `CN1CCN([C@H]2CC[C@@H](n3cc(-c4cccc(OCC5CCC(C)(C)O5)c4)c4c(N)ncnc43)CC2)CC1` (relative stereo) [Example 63, 5-[3-(5,5-dimethyl-tetrahydro-furan-2-ylmethoxy)-phenyl]-7-[cis-4-(4-methyl-piperazin-1-yl)-cyclohexyl]-7H-pyrrolo[2,3-d]pyrimidin-4-ylamine] came in with an IC50 of 61 nM.
As to `CC1(C)CCC(COc2cccc(-c3cn([C@H]4CC[C@H](N5CCOCC5)CC4)c4ncnc(N)c34)c2)O1` (relative stereo) [Example 64, 5-[3-(5,5-dimethyl-tetrahydro-furan-2-ylmethoxy)-phenyl]-7-(trans-4-morpholin-4-yl-cyclohexyl)-7H-pyrrolo[2,3-d]pyrimidin-4-ylamine], half-maximal inhibition (IC50) required 367 nM.
Compound `CC1(C)CCC(COc2cccc(-c3cn([C@H]4CC[C@@H](N5CCOCC5)CC4)c4ncnc(N)c34)c2)O1` (relative stereo) [Example 65, 5-[3-(5,5-dimethyl-tetrahydro-furan-2-ylmethoxy)-phenyl]-7-(cis-4-morpholin-4-yl-cyclohexyl)-7H-pyrrolo[2,3-d]pyrimidin-4-ylamine] returned an IC50 of 128 nM.
The compound `CC1(C)CCC(COc2cccc(-c3cn([C@H]4C[C@@H](CN5CCSC5)C4)c4ncnc(N)c34)c2)O1` (relative stereo) [Example 70, 5-[3-(5,5-dimethyl-tetrahydro-furan-2-ylmethoxy)-phenyl]-7-(cis-3-thiazolidin-3-ylmethyl-cyclobutyl)-7H-pyrrolo[2,3-d]pyrimidin-4-ylamine] displayed an IC50 of 59 nM.
With `Nc1ncnc2c1c(-c1cccc(OCC3CCCO3)c1)cn2[C@H]1C[C@@H](CN2CCC(F)(F)CC2)C1` (relative stereo) [Example 83, 7-[cis-3-(4,4-difluoro-piperidin-1-ylmethyl)-cyclobutyl]-5-[3-(tetrahydro-furan-2-ylmethoxy)-phenyl]-7H-pyrrolo[2,3-d]pyrimidin-4-ylamine], inhibition was half-maximal at 372 nM (IC50).
For the compound `CSC[C@H]1C[C@@H](n2cc(-c3cccc(OCC4CCCCO4)c3)c3c(N)ncnc32)C1` (relative stereo) [Example 85, 7-(cis-3-methylsulfanylmethyl-cyclobutyl)-5-[3-(tetrahydro-pyran-2-ylmethoxy)-phenyl]-7H-pyrrolo[2,3-d]pyrimidin-4-ylamine], it took 557 nM to reach half-maximal inhibition (IC50).
The compound `Nc1ncnc2c1c(-c1cccc(OCC3CCCO3)c1)cn2[C@H]1C[C@@H](CN2CCS(=O)(=O)CC2)C1` (relative stereo) [Example 88, 7-[cis-3-(1,1-Dioxothiomorpholin-4-ylmethyl)-cyclobutyl]-5-[3-(tetrahydro-furan-2-ylmethoxy)-phenyl]-7H-pyrrolo[2,3-d]pyrimidin-4-ylamine] had an IC50 of 234 nM.
For `Nc1ncnc2c1c(-c1cccc(OCC3CCCO3)c1)cn2[C@H]1C[C@H](CN2CCS(=O)(=O)CC2)C1` (relative stereo) [Example 89, 7-[trans-3-(1,1-Dioxothiomorpholin-4-ylmethyl)-cyclobutyl]-5-[3-(tetrahydro-furan-2-ylmethoxy)-phenyl]-7H-pyrrolo[2,3-d]pyrimidin-4-ylamine], the IC50 stood at 316 nM.
Compound `NC(=O)[C@@H]1[C@H](O)CCN1C[C@H]1C[C@H](n2cc(-c3cccc(OCC4CCCO4)c3)c3c(N)ncnc32)C1` (relative stereo) [Example 91, (2S,3R)-1(trans-((1R,3S)-3-(4-amino-5-(3-(tetrahydrofuran-2-yl)methoxy)phenyl)-7H-pyrrolo[2,3-d]pyrimidin-7-yl)cyclobutyl)methyl-3-hydroxylpyrrolidine-2-carboxamide] had an IC50 of 108 nM.
The compound `Nc1ncnc2c1c(-c1cccc(OCC3CCCCO3)c1)cn2[C@H]1C[C@@H](CN2CCCC2C(=O)O)C1` (relative stereo) [Example 92, 1-(cis-3-{4-amino-5-[3-(tetrahydro-pyran-2-ylmethoxy)-phenyl]-pyrrolo[2,3-d]pyrimidin-7-yl}-cyclobutylmethyl)-pyrrolidine-2-carboxylic acid] gave an IC50 of 559 nM.
On to `CSC[C@H]1C[C@@H](n2cc(-c3cccc(OC[C@H]4CCCCO4)c3)c3c(N)ncnc32)C1` (relative stereo) [Example 152, 7-(cis-3-methylsuphanylmethyl-cyclobutyl)-5-{3-[(R)-1-(tetrahydro-pyran-2-yl)methoxy]-phenyl}-7H-pyrrolo[2,3-d]pyrimidin-4-ylamine], for which it took 281 nM to reach half-maximal inhibition (IC50).
As for `Cc1nccn1C[C@H]1C[C@@H](n2cc(-c3cccc(OCC4CCCCO4)c3)c3c(N)ncnc32)C1` (relative stereo) [Example 154, 7-[cis-3-(2-methyl-imidazol-1-ylmethyl)-cyclobutyl]-5-[3-(tetrahydro-pyran-2-ylmethoxy)-phenyl]-7H-pyrrolo[2,3-d]pyrimidin-4-ylamine], inhibition was half-maximal at 71 nM (IC50).
`CC12CCC(COc3cccc(-c4cn([C@H]5C[C@@H](CN6CCS(=O)(=O)CC6)C5)c5ncnc(N)c45)c3)(CC1)O2` (relative stereo) [Example 155, 7-[cis-3-(1,1-dioxo-1-thiomorpholin-4-ylmethyl)-cyclobutyl]-5-[3-(4-methyl-7-oxa-bicyclo[2.2.1]hept-1-ylmethoxy)-phenyl]-7H-pyrrolo[2,3-d]pyrimidin-4-ylamine] showed an IC50 of 24 to 54 nM.
`Cc1nccn1C[C@H]1C[C@@H](n2cc(-c3cccc(OCC45CCC(C)(CC4)O5)c3)c3c(N)ncnc32)C1` (relative stereo) [Example 157, 7-[cis-3-(2-methyl-imidazol-1-ylmethyl)-cyclobutyl]-5-[3-(4-methyl-7-oxa-bicyclo[2.2.1]hept-1-ylmethoxy)-phenyl]-7H-pyrrolo[2,3-d]pyrimidin-4-ylamine] displayed a half-inhibitory concentration (IC50) of 106 to 448 nM.
